In patent US20070099839A1, “Inhibitors of cell migration” (CIT CANCER TARGETING TECHNOLOGIES, priority 2001, published 2007):
No end group written: not given here.

What was measured:
αM I domain = target: T1, αM I domain (Homo sapiens, UniProt P11215); assay: Binding of proMMP-9 to immobilized GST-αM I domain in the presence of competitor peptides (detected with GE-213 antibody); conditions: FIG. 4C
T1 construct: GST-αM and GST-αL I domain fusion proteins were expressed and purified as described previously (30); made in house
T1 sequence (P11215 150-328 limits assumed): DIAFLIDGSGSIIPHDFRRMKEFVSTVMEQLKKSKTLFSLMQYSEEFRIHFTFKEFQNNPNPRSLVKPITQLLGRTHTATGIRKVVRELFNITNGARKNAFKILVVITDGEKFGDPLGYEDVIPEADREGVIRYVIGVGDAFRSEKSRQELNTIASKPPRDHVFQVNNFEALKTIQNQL
Experimental: (4C) Binding of proMMP-9 to the immobilized GST-αM I domain was studied in the presence of each peptide at the concentrations indicated. The binding was determined with the anti-MMP-9 antibody GE-213.
(§1) ICAM-1, fibrinogen, proMMP-8, proMMP-9 or the recombinant domains (0.5 μg/well in PBS) were coated on plastic 96-well plates at +4° C. for 16 h and the wells were blocked with 3% bovine serum albumin (BSA) in PBS for 2 h at room temperature. Binding of the GST-αM I domain was determined essentially as described in the first priority application. In the reverse assay, GST-αM I domain was coated and binding of proMMP-9 was determined using the GE-213 antibody. Competitor peptides were preincubated with the αM I-domain for 20 minutes before the experiment.

THP-1 cells [1] = assay: Effect of peptides on gelatinase release from THP-1 cells (gelatin zymography); format: cell-based, human; conditions: phorbol ester-activated cells; peptides 200 μM; 16 h; FIG. 6D
Experimental: (§2) FIG. 6A to 6D. Blockage of PMN and THP-1 cell migration in vitro by gelatinase and β2 integrin inhibitors. PMNs (1×10^5 in 100 μl) were applied on the LLG-C4-GST or GST coated surface (6A) or HMEC monolayer (6B) in the absence or presence of peptides (200 μM) or antibodies (20 μg/ml) as indicated. PMNs were stimulated with 20 nM PMA (6A), HMECs with […] or 10 ng/ml TNFα or left untreated (6B). THP-1 cells (5×10^4 in 100 μl) were stimulated with 50 nM PMA and applied on the coated surfaces together with each peptide (200 μM) (6C). The cells migrated through transwell filters were stained and counted microscopically. All experiments were repeated at least twice. (6D) Phorbol ester-activated THP-1 cells (5×10^4 in 100 μl) were incubated for 16 h at +37° C. in the presence or absence of peptides as indicated. The conditioned medium was analyzed by gelatin zymography.
THP-1 cells (50 000/100 μl) were incubated in serum-free RPMI for 16 h in the presence or absence of peptides (200 μM) as described in the text The supernatants from THP-1 cells and mouse intraperitoneal fluid were analysed by gelatin zymography. Gelatinolytic activity was quantified by densitometric scanning.

PMNs [2] = assay: PMN adhesion to immobilized proMMP-9 (phosphatase assay); format: cell-based, human; conditions: PMA-stimulated PMNs; peptide 50 μM, antibody 20 μg/ml; FIG. 5C
Experimental: FIG. 5A to 5D. Recognition of recombinant MMP-9 domains by αMβ2 integrin-expressing cells. The studied cells were PMNs (5A, 5B, 5C), αMβ2 L-cell transfectants (5D), non-transfectants (5D), and LAD-1 cells (5D). PMNs were in resting state or stimulated with PMA (5A, 5C) or C5a or TNFα (5B) before the binding experiment to proMMP-9 or its domains. Cells were also pretreated with each peptide (50 μM), antibody (20 μg/ml) or the αM I domain as indicated. Unbound cells were removed by washing and the number of adherent cells was quantitated by a phosphatase assay. The experiment was repeated three times with similar results.
MMP-9 proteins (200 nM in PBS) were coated at +4° C. for 16 h and the microtiter wells were blocked with 3% BSA in PBS for 1 h at room temperature. The αMβ2-integrin L-cell transfectants and PMNs (1×10^5 cells/well) were suspended in RPMI medium supplemented with 2 mM MgCl2 and 0.1% BSA and activated with PMA (20 nM) for 20 min, or with C5a (50 nM) or TNF-α (10 nM) for 4 h at +37° C. The L926 wild type and LAD-1 cells were used as controls. The cells were treated with the indicated antibody (20 μg/ml) or peptide (50 μM) at +37° C. for 30 min, washed twice with serum-free medium and incubated in the microtiter wells at +37° C. for 30 min. The wells were washed with PBS, and the number of adherent cells was quantitated by a phosphatase assay (25).

[3] = test system: intraperitoneal accumulation of PMNs; assay: Mouse model of thioglycolate-induced peritonitis; format: in vivo; conditions: for prevention of thioglycolate-induced increase in gelatinase levels in intraperitoneal fluid (zymography): DDGW 0.1, HFDDDE 0.2, DFEDHD 0.2 mg per mouse intravenously, FIG. 7D; for inhibition of intraperitoneal accumulation of PMNs: intravenous tail injection, 3 h after thioglycolate, FIG. 7A
Experimental: (7A) Mice were injected with thioglycolate or PBS intraperitoneally. The peptides were applied intravenuously at the amounts indicated (A). After 3 h, the intraperitoneal leukocytes were harvested and counted. […] (*) indicates statistical significant difference (p<0.001). The experiment was repeated at least 3 times. The infiltrated neutrophils of mice treated with thioglycolate (7B) or PBS (7C) were stained with anti-MMP-9 and anti-αM, as described in the FIG. 3 legend. Fluorescence was studied by confocal microscopy. Bars: 9.1 μm and […], respectively.
(7D) Gelatinolytic activity of the supernatants from the peritoneal cavities of mice collected as in (7A). Lanes 1-4: samples are from thioglycolate-treated mice; lane 5: a sample from PBS-treated mouse. DDGW, HFDDDE, and DFEDHD were injected intravenously at doses of 0.1, 0.2 and 0.2 mg per mouse. The arrows show proMMP-9 dimer, proMMP-9 and proMMP-2. The experiment was repeated three times with similar results.
Balb/c mice at the age of 31-32 weeks were injected intraperitoneally with 3% (w/v) thioglycolate in sterile saline (32). Peptides ([…] in 100 μl) were introduced intravenously through the tail vein. Animals were euthanized after 3 h and the peritoneal cells were harvested by injecting 10 ml of sterile PBS through the peritoneal wall. Red blood cells present in the lavage fluid were removed by hypotonic lysis. Cells were centrifuged and resuspended in 1 ml of sterile 0.25% BSA/Krebs-Ringer. The supernatants were also collected and analysed by gelatin zymography. The number of neutrophils was determined following staining with 0.1% crystal violet and using a light microscope equipped with a ×100 objective. For immunofluorescence staining, cells were allowed to bind to poly-L-lysine coated cover slips, fixed with 2.5% paraformaldehyde in PBS at +4° C. for 30 min followed by several washings. The Fc receptors were blocked in the presence of 20% of rabbit serum and 3% BSA in PBS. The cells were then incubated with anti-MMP-9 polyclonal and αM monoclonal (MCA74) antibodies for 30 min. After washing with PBS, the secondary antibodies, rhodamine (TRITC)-conjugated anti-rabbit or FITC-conjugated anti-rat (Fab′)2 were incubated for another 30 min. The samples were examined with a confocal microscope. The animal studies were approved by an ethical committee of Helsinki University.

proMMP-8 (Homo sapiens) = test system: T2, proMMP-8 (Homo sapiens); assay: Binding of GST-αM I domain to immobilised proMMP-8 with competitors; conditions: competitors 50 μM; FIG. 4D
T2 construct: GST-αM and GST-αL I domain fusion proteins were expressed and purified as described previously (30); made in house
T2 sequence (P11215 150-328 limits assumed): as above
Experimental: (§3) (4D) Binding of GST-αM I domain to the immobilised proMMP-8, proMMP-9, ICAM-1, and fibrinogen was studied with ICAM-1, DDGW or KKGW (50 μM) as competitors. In control wells, GST was added instead of GST-αM I domain. The experiment was repeated three times with similar results.
as §1

proMMP-9 (Homo sapiens) = test system: T3, proMMP-9 (Homo sapiens); assay: Binding of GST-αM I domain to immobilised proMMP-9 with competitors; conditions: competitors 50 μM; FIG. 4D
T3 construct: GST-αM and GST-αL I domain fusion proteins were expressed and purified as described previously (30); made in house
T3 sequence (P11215 150-328 limits assumed): as above
Experimental: as §3, §1

THP-1 cells [4] = assay: THP-1 cell migration through LLG-C4-GST coated transwell filters; format: cell-based, human; conditions: LLG-C4GST coated filters; 50 nM PMA; peptides 200 μM; 16 h; FIG. 6C
Experimental: as §2
(§4) Cell migration was conducted using Costar 24-transwell migration chambers with a 3 μm pore size for PMNs and 8 μm for THP-1 cells. To study β2 integrin-directed migration, the chamber membrane was coated on both sides with LLG-C4-GST integrin ligand (40 μg/ml) or GST as a control and blocked with 10% serum-containing medium (16). […] The non-migrated cells were removed from the upper surface by a cotton swab and the cells that had traversed the filters were stained with crystal violet and counted.

MMP-9 catalytic domain = assay: Binding to the MMP-9 catalytic domain (unpublished results)
Sequence of MMP-9 catalytic domain (P14780 107-444 limits assumed): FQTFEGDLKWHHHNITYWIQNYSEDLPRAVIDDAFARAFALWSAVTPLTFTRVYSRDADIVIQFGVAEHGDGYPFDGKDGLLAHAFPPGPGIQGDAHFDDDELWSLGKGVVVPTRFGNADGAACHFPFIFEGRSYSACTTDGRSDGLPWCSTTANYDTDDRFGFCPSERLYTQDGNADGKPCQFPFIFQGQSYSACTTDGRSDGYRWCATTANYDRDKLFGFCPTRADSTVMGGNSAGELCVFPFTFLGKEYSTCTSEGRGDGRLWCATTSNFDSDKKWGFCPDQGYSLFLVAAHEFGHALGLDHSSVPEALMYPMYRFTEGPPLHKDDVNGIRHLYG

PMNs [5] = assay: PMN transwell migration on LLG-C4-GST coated filters; format: cell-based, human; conditions: LLG-C4-GST substratum; peptides 200 μM, antibodies 20 μg/ml; 20 nM PMA; FIG. 6A
Experimental: as §2, §4

PMNs [6] = assay: PMN transendothelial migration through HMEC monolayer; format: cell-based, human; conditions: chemotaxis with C5a or TNF-α, peptides 200 μM, antibodies 20 μg/ml, FIG. 6B
Experimental: as §2, §4

THP-1 cells [7] = conditions: FI 2003 0923; cited from earlier work
[8] = test system: leukocyte primary adhesion to ICAM-1, fibrinogen or LLG-C4GST; assay: Leukocyte primary adhesion to ICAM-1, fibrinogen or LLG-C4GST; format: cell-based

Molecule	inhibition of proMMP-9 binding to the αM I domain (in words) (αM I domain)	inhibition of PMN adherence on proMMP-9 (PMNs [2])	inhibition of intraperitoneal accumulation of PMNs [3]	competition with αM I domain binding to proMMP-8 (proMMP-8 (Homo sapiens))	competition with αM I domain binding to proMMP-9 (proMMP-9 (Homo sapiens))	other results
DFEDHD	inactive	no effect	no effect	–	–	release of proMMP-9 from THP-1 cells (THP-1 cells [1]): did not induce; prevention of thioglycolate-induced increase in gelatinase levels in intraperitoneal fluid (zymography) [3]: not
fibrinogen	–	–	–	did not compete	did not compete	–
CTITHWGFTLC [CTT]	–	inhibited	–	–	–	inhibition of THP-1 migration (THP-1 cells [4]): inhibited; binding to the MMP-9 catalytic domain (MMP-9 catalytic domain): binds; inhibition of migration of PMA-stimulated PMNs (PMNs [5]): worked similarly; inhibition of PMN transendothelial migration (PMNs [6]): inhibition
HFDDDE [HFDDDE]	–	–	–	–	–	IC50 (αM I domain; read-out: inhibition of proMMP-9 binding to the αM I domain, IC50): 20 µM
ADGACILWMDDGWCGAAG	equally potent	inhibited	inhibited	inhibitable	inhibitable	inhibition of THP-1 migration (THP-1 cells [4]): inhibited; release of proMMP-9 from THP-1 cells (previous studies) (THP-1 cells [7]): can release proMMP-9; inhibition of leukocyte primary adhesion to ICAM-1, fibrinogen or LLG-C4GST [8]: unable to inhibit; inhibition of migration of PMA-stimulated PMNs (PMNs [5]): worked similarly; inhibition of PMN transendothelial migration (PMNs [6]): inhibition; activity on intraperitoneal PMN accumulation ([3]; 5 μg given per mouse, intravenous): active; prevention of thioglycolate-induced increase in gelatinase levels in intraperitoneal fluid (zymography) [3]: prevented the increase; effective dose ([3]; corresponding to 5 μg given per mouse): 0.1 mg/kg mouse tissue
ADGACILWMKKGWCGAAG [control peptide for DDGW]	without effect	no effect	no effect	–	–	–
ICAM-1: intracellular adhesion molecule 1, β2 integrin ligand used as competitor (protein, UniProt P05362 28-532, looked up) Intercellular adhesion …: QTSVSPSKVILPRGGSVLVTCSTSCDQPKLLGIETPLPKKELLLPGNNRKVYELSNVQEDSQPMCYSNCPDGQSTAKTFLTVYWTPERVELAPLPSWQPVGKNLTLRCQVEGGAPRANLTVVLLRGEKELKREPAVGEPAEVTTTVLVRRDHHGANFSCRTELDLRPQGLELFENTSAPYQLQTFVLPATPPQLVSPRVLEVDTQGTVVCSLDGLFPVSEAQVHLALGDQRLNPTVTYGNDSFSAKASVSVTAEDEGTQRLTCAVILGNQSQETLQTVTIYSFPAPNVILTKPEVSEGTEVTVKCEAHPRAKVTLNGVPAQPLGPRAQLLLKATPEDNGRSFSCSATLEVAGQLIHKNQTRELRVLYGPRLDERDCPGNWTWPENSQQTPMCQAWGNPLPELKCLKDGTFPLPIGESVTVTRDLEGTYLCRARSTQGEVTRKVTVNVLSPRYEIVIITVVAAAVIMGTAGLSTYLYNRQRKIKKYRLQQAQKGTPMKPNTQATPP	–	–	–	did not compete	did not compete	–
